Assay [1] has as its target RON (human) (Homo sapiens, UniProt Q04912). Put plainly: RON kinase AlphaScreen assay (Km of ATP). The format is biochemical. The conditions noted are these: ATP at Km; at least duplicate experiments. The gist of the method:
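Human RON phosphorylated biotinylated poly(Glu,Tyr) (200 ng/μL) at Km ATP in 50 mM HEPES pH 7.4, 12.5 mM MgCl2, 1% glycerol, 0.334 mM vanadate, 1% DMSO. Reaction ran 30 min at RT after enzyme addition. Product was detected by AlphaScreen with PT66 beads after 1 h.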
On the technique in general: Alpha assays give light when donor and acceptor beads are brought close together.

Assay [2] deals with MET (human) (Homo sapiens, UniProt P08581). Put plainly: MET kinase AlphaScreen assay (Km of ATP). The format is biochemical. The conditions noted are these: ATP at Km; at least duplicate experiments. The gist of the method: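 Biotinylated poly(Glu,Tyr) (200 ng/μL) phosphorylated by MET with ATP at an enzyme-optimized level, in 50 mM HEPES pH 7.4 with Mg2+/Mn2+ and vanadate, 1% DMSO. Reaction runs 60 min at RT. PT66 AlphaScreen donor/acceptor beads are added and signal is read after 1 h.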
Chain of MET (human) (P08581 25-1390): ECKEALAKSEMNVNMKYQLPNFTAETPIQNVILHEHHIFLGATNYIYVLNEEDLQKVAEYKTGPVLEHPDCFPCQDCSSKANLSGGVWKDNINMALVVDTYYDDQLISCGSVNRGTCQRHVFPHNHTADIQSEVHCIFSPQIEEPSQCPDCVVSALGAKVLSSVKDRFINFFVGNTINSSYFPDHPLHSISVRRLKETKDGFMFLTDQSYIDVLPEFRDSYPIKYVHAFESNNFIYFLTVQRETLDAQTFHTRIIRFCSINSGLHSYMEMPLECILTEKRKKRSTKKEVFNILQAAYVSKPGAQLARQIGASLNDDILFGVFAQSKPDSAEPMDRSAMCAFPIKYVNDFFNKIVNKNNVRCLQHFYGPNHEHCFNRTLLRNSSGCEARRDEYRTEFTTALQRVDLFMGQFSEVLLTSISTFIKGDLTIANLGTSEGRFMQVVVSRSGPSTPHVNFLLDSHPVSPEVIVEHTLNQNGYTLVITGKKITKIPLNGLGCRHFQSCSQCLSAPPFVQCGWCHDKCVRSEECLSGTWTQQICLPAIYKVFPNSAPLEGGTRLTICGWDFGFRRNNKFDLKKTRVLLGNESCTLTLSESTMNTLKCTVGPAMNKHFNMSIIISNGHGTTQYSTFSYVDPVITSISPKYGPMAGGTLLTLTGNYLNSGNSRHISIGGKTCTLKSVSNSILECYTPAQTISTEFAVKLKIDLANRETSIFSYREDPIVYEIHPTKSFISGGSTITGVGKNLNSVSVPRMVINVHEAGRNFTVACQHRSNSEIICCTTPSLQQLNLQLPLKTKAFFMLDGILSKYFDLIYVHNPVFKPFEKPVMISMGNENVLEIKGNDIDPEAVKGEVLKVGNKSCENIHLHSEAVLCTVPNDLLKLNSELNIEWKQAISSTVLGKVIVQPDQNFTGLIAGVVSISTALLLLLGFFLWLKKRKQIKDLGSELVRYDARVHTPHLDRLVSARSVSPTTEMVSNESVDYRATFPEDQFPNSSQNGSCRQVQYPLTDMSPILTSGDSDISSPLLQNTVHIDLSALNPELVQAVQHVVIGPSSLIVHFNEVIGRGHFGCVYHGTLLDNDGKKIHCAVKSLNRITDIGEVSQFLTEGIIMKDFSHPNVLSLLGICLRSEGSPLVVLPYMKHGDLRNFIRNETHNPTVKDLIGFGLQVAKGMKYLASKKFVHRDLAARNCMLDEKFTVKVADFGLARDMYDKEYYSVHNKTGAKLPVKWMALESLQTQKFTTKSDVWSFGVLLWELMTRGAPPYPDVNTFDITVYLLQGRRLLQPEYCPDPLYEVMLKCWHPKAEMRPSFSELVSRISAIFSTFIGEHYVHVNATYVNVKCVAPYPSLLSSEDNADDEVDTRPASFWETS

Counter-ions that a name gives are not always drawn.

Chain of RON (human) (Q04912 25-1400): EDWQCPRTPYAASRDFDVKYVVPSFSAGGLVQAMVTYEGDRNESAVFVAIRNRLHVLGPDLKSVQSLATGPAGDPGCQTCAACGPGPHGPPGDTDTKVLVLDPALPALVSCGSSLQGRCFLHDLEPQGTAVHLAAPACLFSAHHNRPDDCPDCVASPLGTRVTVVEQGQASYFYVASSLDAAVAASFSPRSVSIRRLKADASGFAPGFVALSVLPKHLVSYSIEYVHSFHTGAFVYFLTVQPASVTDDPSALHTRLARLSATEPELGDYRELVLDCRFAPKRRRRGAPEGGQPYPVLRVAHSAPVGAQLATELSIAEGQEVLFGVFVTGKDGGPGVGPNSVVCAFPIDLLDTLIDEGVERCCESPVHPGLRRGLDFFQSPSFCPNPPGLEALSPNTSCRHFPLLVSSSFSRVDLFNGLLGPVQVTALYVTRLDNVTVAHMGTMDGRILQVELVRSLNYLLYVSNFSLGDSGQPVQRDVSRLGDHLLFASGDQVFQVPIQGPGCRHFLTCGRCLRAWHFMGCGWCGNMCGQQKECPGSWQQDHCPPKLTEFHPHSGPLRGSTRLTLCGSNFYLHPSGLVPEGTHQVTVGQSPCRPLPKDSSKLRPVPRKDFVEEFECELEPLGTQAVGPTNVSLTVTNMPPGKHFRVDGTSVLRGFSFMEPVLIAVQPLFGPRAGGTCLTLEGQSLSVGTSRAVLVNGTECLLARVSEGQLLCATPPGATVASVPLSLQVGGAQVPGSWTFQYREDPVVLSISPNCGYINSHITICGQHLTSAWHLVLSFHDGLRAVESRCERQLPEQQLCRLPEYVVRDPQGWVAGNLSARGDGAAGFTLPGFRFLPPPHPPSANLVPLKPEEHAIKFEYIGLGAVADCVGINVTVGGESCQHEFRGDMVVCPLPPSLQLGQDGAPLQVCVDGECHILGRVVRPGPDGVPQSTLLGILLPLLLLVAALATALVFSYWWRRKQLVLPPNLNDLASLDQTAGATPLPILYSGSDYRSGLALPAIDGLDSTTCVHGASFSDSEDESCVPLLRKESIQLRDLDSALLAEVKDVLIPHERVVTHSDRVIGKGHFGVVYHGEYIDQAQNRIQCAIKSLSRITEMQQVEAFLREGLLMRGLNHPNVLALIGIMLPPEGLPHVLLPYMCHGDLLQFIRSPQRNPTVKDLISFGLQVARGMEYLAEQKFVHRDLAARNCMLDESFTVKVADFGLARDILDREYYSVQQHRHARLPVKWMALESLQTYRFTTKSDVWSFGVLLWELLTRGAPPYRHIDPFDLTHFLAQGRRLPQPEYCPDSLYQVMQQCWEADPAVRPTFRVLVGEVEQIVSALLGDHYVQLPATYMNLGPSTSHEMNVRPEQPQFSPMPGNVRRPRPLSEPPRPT

As to `N#Cc1cccc2nc(-c3cc(-c4cnn(C5CCNCC5)c4)cnc3N)sc12` [Example 275, 2-[2-Amino-5-(1-piperidin-4-yl-1H-pyrazol-4-yl)-pyridin-3-yl]-benzothiazole-7-carbonitrile], the IC50 in assay [1] and in assay [2] was 100 to 1000 nM throughout.

Regarding `Nc1ncc(-c2cnn(C3CCNCC3)c2)cc1-c1nc2cc(Br)ccc2s1` [Example 276, 3-(5-Bromobenzothiazol-2-yl)-5-(1-piperidin-4-yl-1H-pyrazol-4-yl)-pyridin-2-ylamine], the IC50 in assay [1] and in assay [2] was 100 to 1000 nM in each case.

In the case of `COc1cccc2sc(-c3cc(-c4cnn(C5CCNCC5)c4)cnc3N)nc12` [Example 277, 3-(4-Methoxybenzothiazol-2-yl)-5-(1-piperidin-4-yl-1H-pyrazol-4-yl)-pyridin-2-ylamine], the IC50 in assay [1] and in assay [2] was 100 to 1000 nM in each case.

Take `Nc1ncc(-c2cnn(C3CCNCC3)c2)cc1-c1nc2c(Cl)cccc2s1` [Example 278, 3-(4-Chlorobenzothiazol-2-yl)-5-(1-piperidin-4-yl-1H-pyrazol-4-yl)-pyridin-2-ylamine]: the values for the 50% inhibitory concentration (IC50) in assay [1] and in assay [2] were 100 to 1000 nM and at most 100 nM, respectively.

Consider `Nc1ncc(-c2cnn(C3CCNCC3)c2)cc1-c1nc2ccc(C(F)(F)F)cc2s1` [Example 279, 5-(1-Piperidin-4-yl-1H-pyrazol-4-yl)-3-(6-trifluoromethylbenzothiazol-2-yl)-pyridin-2-ylamine], for which the IC50 in assay [1] and in assay [2] was 100 to 1000 nM in each case.

Regarding `Cc1ccc(C(F)(F)F)c2nc(-c3cc(-c4cnn(C5CCNCC5)c4)cnc3N)sc12` [Example 280, 3-(7-Methyl-4-trifluoromethylbenzothiazol-2-yl)-5-(1-piperidin-4-yl-1H-pyrazol-4-yl)-pyridin-2-ylamine], the half-inhibitory concentration (IC50) in assay [1] and in assay [2] was 100 to 1000 nM each time.

For `Nc1ncc(-c2cnn(C3CCNCC3)c2)cc1-c1nc2cc(OC(F)(F)F)ccc2s1` [Example 281, 5-(1-Piperidin-4-yl-1H-pyrazol-4-yl)-3-(5-trifluoromethoxybenzothiazol-2-yl)-pyridin-2-ylamine], the IC50 in assay [1] and in assay [2] was 100 to 1000 nM each time.

`Nc1ncc(-c2cnn(C3CCNCC3)c2)cc1-c1nc2c(C(F)(F)F)ccc(Cl)c2s1` [Example 282, 3-(7-Chloro-4-trifluoromethylbenzothiazol-2-yl)-5-(1-piperidin-4-yl-1H-pyrazol-4-yl)-pyridin-2-ylamine]: the IC50 in assay [1] and in assay [2] was 100 to 1000 nM each time.

With `Nc1ncc(-c2cnn(C3CCNCC3)c2)cc1-c1nc2cc(F)ccc2s1` [Example 283, 3-(5-Fluorobenzothiazol-2-yl)-5-(1-piperidin-4-yl-1H-pyrazol-4-yl)-pyridin-2-ylamine], the IC50 in assay [1] and in assay [2] was at most 100 nM in each case.

`N#Cc1cccc2sc(-c3cc(-c4cnn(C5CCNCC5)c4)cnc3N)nc12` [Example 284, 2-[2-Amino-5-(1-piperidin-4-yl-1H-pyrazol-4-yl)-pyridin-3-yl]-benzothiazole-4-carbonitrile]: the IC50 in assay [1] and in assay [2] was 100 to 1000 nM throughout.

`Nc1ncc(-c2cnn(C3CCNCC3)c2)cc1-c1nc2c(OC(F)(F)F)cccc2s1` [Example 285, 5-(1-Piperidin-4-yl-1H-pyrazol-4-yl)-3-(4-trifluoromethoxybenzothiazol-2-yl)-pyridin-2-ylamine]: the concentration for half-maximal inhibition (IC50) (commonly the point on the concentration scale where inhibition reaches its midpoint) was 1000 to 20000 nM in assay [1] and 100 to 1000 nM in assay [2].

On to `Nc1ncc(-c2cnn(C3CCNCC3)c2)cc1-c1nc2c(C(F)(F)F)c(F)ccc2s1` [Example 286, 3-(5-Fluoro-4-trifluoromethylbenzothiazol-2-yl)-5-(1-piperidin-4-yl-1H-pyrazol-4-yl)-pyridin-2-ylamine], for which the concentration for half-maximal inhibition (IC50) in assay [1] and in assay [2] was 100 to 1000 nM in each case.

For `Nc1ncc(-c2cnn(C3CCNCC3)c2)cc1-c1nc2c(Br)cc(OC(F)(F)F)cc2s1` [Example 287, 3-(4-Bromo-6-trifluoromethoxybenzothiazol-2-yl)-5-(1-piperidin-4-yl-1H-pyrazol-4-yl)-pyridin-2-ylamine], the results for the IC50 in assay [1] and in assay [2] were 100 to 1000 nM and 1000 to 20000 nM, respectively.

Turning to `Nc1ncc(-c2cnn(CCC(=O)N3CCCCC3)c2)cc1-c1nc2ccccc2s1` [Example 288, 3-[4-(6-Amino-5-benzothiazol-2-ylpyridin-3-yl)-pyrazol-1-yl]-1-piperidin-1-ylpropan-1-one], the IC50 in assay [1] is above 20000 nM; in assay [2], 100 to 1000 nM.

For the compound `Nc1ncc(-c2cnn(CCC(=O)N3CCC(O)C3)c2)cc1-c1nc2ccccc2s1` (stereo not drawn) [Example 289, 3-[4-(6-Amino-5-benzothiazol-2-ylpyridin-3-yl)-pyrazol-1-yl]-1-(3-hydroxypyrrolidin-1-yl)-propan-1-one], the 50% inhibitory concentration (IC50) is 1000 to 20000 nM in assay [1] and 100 to 1000 nM in assay [2].

Take `Nc1ncc(-c2cnn(CCC(=O)N3CCC(O)CC3)c2)cc1-c1nc2ccccc2s1` [Example 290, 3-[4-(6-Amino-5-benzothiazol-2-ylpyridin-3-yl)-pyrazol-1-yl]-1-(4-hydroxypiperidin-1-yl)-propan-1-one]: the values for the IC50 in assay [1] and in assay [2] were 1000 to 20000 nM and 100 to 1000 nM, respectively.

Take `Nc1ncc(-c2cnn(CCC(=O)N3CCOCC3)c2)cc1-c1nc2ccccc2s1` [Example 291, 3-[4-(6-Amino-5-benzothiazol-2-ylpyridin-3-yl)-pyrazol-1-yl]-1-morpholin-4-ylpropan-1-one]: the 50% inhibitory concentration (IC50) in assay [1] was above 20000 nM; in assay [2] it was 1000 to 20000 nM.

With `COCCNC(=O)CCn1cc(-c2cnc(N)c(-c3nc4ccccc4s3)c2)cn1` [Example 292, 3-[4-(6-Amino-5-benzothiazol-2-ylpyridin-3-yl)-pyrazol-1-yl]-N-(2-methoxyethyl)-propionamide], the results for the 50% inhibitory concentration (IC50) in assay [1] and in assay [2] were above 20000 nM and 1000 to 20000 nM, respectively.

For `Nc1ncc(-c2cnn(CCC(=O)NCCO)c2)cc1-c1nc2ccccc2s1` [Example 293, 3-[4-(6-Amino-5-benzothiazol-2-ylpyridin-3-yl)-pyrazol-1-yl]-N-(2-hydroxyethyl)-propionamide], the IC50 was in the range of 1000 to 20000 nM in assay [1] and 100 to 1000 nM in assay [2].

Consider `COCCN(CCOC)C(=O)CCn1cc(-c2cnc(N)c(-c3nc4ccccc4s3)c2)cn1` [Example 294, 3-[4-(6-Amino-5-benzothiazol-2-ylpyridin-3-yl)-pyrazol-1-yl]-N,N-bis-(2-methoxyethyl)-propionamide], for which the half-inhibitory concentration (IC50) in assay [1] and in assay [2] was 1000 to 20000 nM each time.

`CN(C)C(=O)CCn1cc(-c2cnc(N)c(-c3nc4ccccc4s3)c2)cn1` [Example 295, 3-[4-(6-Amino-5-benzothiazol-2-ylpyridin-3-yl)-pyrazol-1-yl]-N,N-dimethylpropionamide]: the IC50 was in the range of 1000 to 20000 nM in assay [1] and 100 to 1000 nM in assay [2].

As to `CNC(=O)CCn1cc(-c2cnc(N)c(-c3nc4ccccc4s3)c2)cn1` [Example 296, 3-[4-(6-Amino-5-benzothiazol-2-ylpyridin-3-yl)-pyrazol-1-yl]-N-methylpropionamide], the IC50 in assay [1] and in assay [2] was 1000 to 20000 nM throughout.

Regarding `NC(=O)CCn1cc(-c2cnc(N)c(-c3nc4ccccc4s3)c2)cn1` [Example 297, 3-[4-(6-Amino-5-benzothiazol-2-ylpyridin-3-yl)-pyrazol-1-yl]-propionamide], the concentration for half-maximal inhibition (IC50) in assay [1] was in the range of 1000 to 20000 nM; in assay [2], 100 to 1000 nM.

As for `Nc1ncc(-c2cnn(C3CCNCC3)c2)cc1-c1nc2c(s1)CCCC2` [Example 298, 5-(1-Piperidin-4-yl-1H-pyrazol-4-yl)-3-(4,5,6,7-tetrahydro-benzothiazol-2-yl)-pyridin-2-ylamine], the IC50 in assay [1] and in assay [2] was at most 100 nM each time.

In the case of `Nc1ncc(-c2cnn(C3CCNCC3)c2)cc1-c1nc2c(s1)CCCCC2` [Example 299, 5-(1-Piperidin-4-yl-1H-pyrazol-4-yl)-3-(5,6,7,8-tetrahydro-4H-cycloheptathiazol-2-yl)-pyridin-2-ylamine], the IC50 in assay [1] and in assay [2] was 100 to 1000 nM each time.

`Nc1ncc(-c2cnn(C3CCNCC3)c2)cc1N1CCc2ccccc2C1` [Example 300, 3-(3,4-Dihydro-1H-isoquinolin-2-yl)-5-(1-piperidin-4-yl-1H-pyrazol-4-yl)-pyridin-2-ylamine]: the results for the half-maximal inhibitory concentration (IC50) in assay [1] and in assay [2] were 1000 to 20000 nM and 100 to 1000 nM, respectively.

On to `Nc1ncc(-c2cnn(C3CCNCC3)c2)cc1N1CCc2c(F)cccc2C1` [Example 301, 3-(5-Fluoro-3,4-dihydro-1H-isoquinolin-2-yl)-5-(1-piperidin-4-yl-1H-pyrazol-4-yl)-pyridin-2-ylamine], for which the IC50 in assay [1] and in assay [2] was 1000 to 20000 nM throughout.

As for `Nc1ncc(-c2cnn(C3CCNCC3)c2)cc1N1CCc2c(Cl)cccc2C1` [Example 302, 3-(5-Chloro-3,4-dihydro-1H-isoquinolin-2-yl)-5-(1-piperidin-4-yl-1H-pyrazol-4-yl)-pyridin-2-ylamine], the IC50 in assay [1] and in assay [2] was 100 to 1000 nM throughout.

As to `Nc1ncc(-c2cnn(C3CCNCC3)c2)cc1N1CCc2c(F)ccc(F)c2C1` [Example 303, 3-(5,8-Difluoro-3,4-dihydro-1H-isoquinolin-2-yl)-5-(1-piperidin-4-yl-1H-pyrazol-4-yl)-pyridin-2-ylamine], the half-maximal inhibitory concentration (IC50) in assay [1] and in assay [2] was 100 to 1000 nM in each case.

As for `Nc1ncc(-c2cnn(C3CCNCC3)c2)cc1-c1ccc2ccccc2c1` [Example 304, 3-Naphthalen-2-yl-5-(1-piperidin-4-yl-1H-pyrazol-4-yl)-pyridin-2-ylamine trihydrochloride], the half-inhibitory concentration (IC50) in assay [1] was in the range of 1000 to 20000 nM; in assay [2], 100 to 1000 nM.
